Reference: patent US12251373B2, “Compounds and methods of treating retinal degeneration” (CASE WESTERN RESERVE UNIVERSITY, priority 2017, dated 2025)
Where two headings read alike, the source gives them in different places.

What was measured:
Format in all cases: cell-based
mouse P23H opsin mutant = mouse P23H opsin mutant (Mus musculus, UniProt P15409, P23H); assay: β-Gal fragment complementation assay: rescue of P23H opsin transport from ER to plasma membrane, U2OS(PLC-EA/P23H-PK) cells; conditions: for Emax: U2OS
Description: U2OS(PLC-EA/P23H-PK) cells. A U2OS stable cell line was generated by DiscoveRx, Inc. (Fremont, CA, USA) for the β-Gal fragment complementation assay used in the small molecule HTS for rescue of P23H opsin transport. U2OS cells that continually express P23H-PK and PLC-EA fusion proteins were generated. Briefly, this small subunit of […] (PK fragment) was fused to the C-terminal of the mouse P23H opsin mutant, while the large EA fragment, a subunit of […], was fused with PLC, a plasma membrane anchored peptide. Both constructs were subcloned by DicoveRx, Inc. and transferred into U2OS cells by viral infections. Positive clones were selected under treatment with hygromycin and geneticin.
Briefly, U2OS(PLC-EA/P23H-PK) cells were suspended in assay medium at 3×10^5 cells mL^−1. The cell suspension was dispensed into 384-well plates (Greiner Bio-one, Monroe, NC, USA) at 20 μL per well, with a Multidrop dispenser (Thermo Scientific, Waltham, MA, USA). Plates with cells then were centrifuged at 200 g for 15 s before incubation at 37° C. with 5% CO2. Plates were removed 24 h later for treatment with tested compounds. A total of 248 plates containing 79,080 compounds from three small molecule libraries were paired with an equal number of assay plates with cultured cells. Due to a limited capacity, these plates were assayed in seven batches. An average of 56.3 nL of 10 mM compound in DMSO was dispensed into each well from column 3 to 22 of paired assay plates using a 50 nL 384-pintool system, such that the final concentration of each compound was 22.52 μM on average. […] Each assay plate was shaken for 5 s before further incubation at 37° C. with 5% CO2. […] Assay plates were incubated in the dark for 60-90 min, and luminescence was read from each assay plate with an Envision microplate reader (PerkinElmer) during a 0.1 s per well integration time. The mean and s.d. of readouts in column 2 of each plate were calculated as Mean0% and SD0%, whereas the average and s.d. of readouts in column 23 were calculated as Mean100% and SD100%. Equation 1: Activity scores (%)=(RLUcp−Mean0%)/(Mean100%−Mean0%)×100%, where RLUcp is the relative luminescence unit derived for cells treated with a compound. Equation 2: Z′-factor=1-3×(SD0%+SD100%)/(Mean100%−Mean0%); Equation 3: signal-to-background (S/B) ratio=Mean100%/Mean0%. Activities of all tested compounds were registered with their compound ID by GeneData Screener (Genedata, Basel, Switzerland) and Pipeline Pilot software (Accelrys, San Diego, CA, USA). Hits, cherry-picked from a separate stock dose-dependent activity test, were selected with an activity score cutoff at 20%. Activity of each hit was tested again with the β-Gal fragment complementation assay in a 10-dose series with each dose tested in triplicate. The 10 doses tested were 80, 40, 20, 10, 5, 2.5, 1.25, 0.625, 0.313, and 0.156 μM. Dose-dependent curves of each hit compound were fitted with GeneData and Origin software.
Detailed synthetic steps are described in FIG. 18. […] YC-002-YC-021 were purchased from commercial vendors including Enamine LLC (Monmouth Jct., NJ, USA), Matrix Scientific (Columbia, SC, USA) and Tokyo Chemical Industry Co., Ltd. (Portland, OR, USA). […] Activities of YC compounds were tested with the β-Gal fragment complementation assay, as described in a prior section. All YC compounds were tested at 10 doses, each in triplicate: 80, 40, 20, 10, 5, 2.5, 1.25, 0.625, 0.313, and 0.156 μM.

P23H opsin = molecular target: T1, P23H opsin (Mus musculus, UniProt P15409, P23H); assay: Immunoblot of P23H opsin glycosylation in NIH3T3 cells; design: key to Improved glycosylation: n = no; y = yes; conditions: P23H opsin
T1 construct: expressed in transfected cells
Procedure: NIH3T3-(P23H-opsin/GFP) or NIH3T3-(WT-opsin/GFP) cells were seeded in a 48-well plate (Corning Costar) at 3.2×10^5 cells per well and incubated at 37° C. with 5% CO2 for 2 h. One hundred-μL of assay medium containing a compound at 5× its final concentration was added to each well. The plate was gently shaken for 5 s before further incubation at 37° C. with 5% CO2 for 24 h. The assay medium then was aspirated, and cells were lysed with 100 μL per well PBS containing 0.1% Triton X-100 and complete protease inhibitor cocktail (Roche, Basel, Switzerland) followed by sonication for 3 s. Protein concentrations were determined with the Bradford assay. For PNGase F catalyzed deglycosylation, 3 μL of PNGase F (1,500 U, NEB) was added to the cell lysate and the mixture was incubated at room temperature for 1 h before immunoblotting. For NIH3T3-(P23H-opsin/GFP) cells, 15 μg of total protein were loaded per well onto an SDS-polyacrylamide gel; whereas for NIH3T3-(WT-opsin/GFP) cells, 10 μg of total protein was loaded per well. Opsin protein was immunostained with 0.2 μg mL^−1 horseradish peroxidase-conjugated 1D4 anti-rhodopsin antibody. Band intensities were measured with ImageJ software (http://imagej.nih.gov/ij/; National the Institutes of Health, Bethesda, MD, USA) and normalized to a glyceraldehyde 3-phosphate dehydrogenase (GAPDH) loading control.

mouse P23H opsin = molecular target: T2, mouse P23H opsin (Mus musculus, UniProt P15409, P23H); assay: Immunostain and image-based high-content analysis of P23H mutant opsin in NIH3T3 cells; conditions: ratio of P23H rod opsin fluorescence on plasma membrane to whole cell; for EC50: read-out: Immunostaining HCS MEM-Total ratio EC50
T2 construct: expressed in transfected cells
Description: Three NIH3T3 stable cell lines, NIH3T3-(WT-opsin/GFP), NIH3T3-(P23H-opsin/GFP), and NIH3T3-(GFP) were previously generated which stably express mouse WT opsin and GFP; P23H opsin and GFP; and only GFP, respectively. GFP is expressed separately from opsin in these cell lines. NIH3T3 cells were from ATCC. DNA constructs for generating these stable cell lines were confirmed by Sanger sequencing. Expression of GFP was confirmed by green fluorescence imaging, and expression of P23H and WT opsin were confirmed by immunoblots.
To characterize the effect of active compounds on the localization of P23H mutant opsin in mammalian cells, an image-based assay was used with cells immunostained for WT or P23H mutant opsin protein. Briefly, NIH3T3-(P23H-opsin/GFP) or NIH3T3-(WT-opsin/GFP) cells were seeded at 5,000 cells per well in a 384-well cell-carrier plate (PerkinElmer) and incubated at 37° C. with 5% CO2 for 2 h. Cells were treated with compounds as described for the β-Gal fragment complementation assay and incubated in assay medium for 24 h. The assay medium then was aspirated, and cells were fixed with 4% paraformaldehyde at 20 μL per well for 20 min at RT. Cells were immunostained in one of two ways: cell membranes were either permeabilized with 0.1% Triton X-100 for 15 min or left intact and then were incubated with 10% goat serum (Life Technologies). To detect opsin on the cell plasma membrane only, intact cells were immunostained with 20 μL per well of 20 μg mL^−1 B6-30 anti-rhodopsin antibody that recognizes the N-terminal epitope on the extracellular side of rhodopsin. To detect total opsin, cells were permeabilized with Triton X-100 and immunostained with 50 μg mL^−1 1D4 anti-rhodopsin antibody specific for the C-terminal epitope on the intracellular side of rhodopsin. Opsin immunostaining was visualized by incubating cells with 5 μg mL^−1 Cy3-conjugated goat anti-mouse IgG antibody. Three washes with phosphate-buffered saline (PBS: 10 mM Na2HPO4, 1.8 mM KH2PO4, pH 7.4, 137 mM NaCl, and 2.7 mM KCl) were performed between each step of incubation with antibody. In the last wash with PBS, DAPI was added to each well at 300 nM. Fluorescence images were obtained with the Operetta High Content Imaging System (PerkinElmer) using a 20× long objective. Five fields were taken of each well for cell images using three channels for fluorescence: GFP (100 ms), Cy3 (300 ms), and DAPI (50 ms). Images were analyzed with Acapella software from the Columbus data storage and analysis system (PerkinElmer). For cells immunostained with opsin on the non-permeabilized cell membrane only, an average of total fluorescence intensity of Cy3 per cell was used to quantify opsin in each well of the 384-well plate. For cells immunostained with opsin in permeabilized whole cells, an average ratio of Cy3 intensity on the cell plasma membrane (PM) to that of the entire cell (opsin ratio PM-to-total) was calculated for each well of a 384-well plate to quantify opsin transport to the plasma membrane. The plasma membrane was defined within ±5% of the cell border.

[1] = Table 1, experimental maximum, read-out: β-Gal fragment complementation assay Activity score (%) Max (Exp)
[2] = Table 1, fitted maximum, read-out: β-Gal fragment complementation assay Activity score (%) Max (fit)
[3] = read-out: β-Gal fragment complementation assay Activity score (%) EC50
[4] = Table 3, modifications at C4 of the furan-2(5H)-one ring, read-out: Potency
[5] = Table 5, more than one site modified, read-out: Potency
[6] = Table 2, modifications at C3 of the furan-2(5H)-one ring, read-out: Potency EC50

SMILES | Emax (mouse P23H opsin mutant; [1]) | Emax (mouse P23H opsin mutant; [2]) | EC50 (mouse P23H opsin mutant; [3]) | Improved glycosylation (P23H opsin) | Immunostaining HCS MEM-Total ratio Max (fit) (mouse P23H opsin) | EC50 (mouse P23H opsin) | Emax (mouse P23H opsin mutant; read-out: Efficacy (%)) | further results
O=C(NCCn1ncc2c(NCc3ccco3)ncnc21)c1cc(-c2ccccc2)on1 [Compound F2902-1134] | 23.1% | 31.5% | 21.6 µM | n | 0.031 | 4.15 µM |  | 
COCCNC(=O)c1sc2c(cnc3ccc(OC)cc32)c1-c1ccccc1 [Compound F3382-5924] | 931% | 155% | 28.6 µM | y | 0.046 | 2.42 µM |  | 
O=C(Cn1c2c(c(=O)n(C3CCCCC3)c1=O)CCC2)Nc1cccc(F)c1 [Compound F5111-0031] | 60.4% | 165% | 54.3 µM | y | 0.025 | 6.76 µM |  | 
O=C(C1CC1)N(CCn1cccn1)c1nc2c(Cl)cccc2s1 [Compound F5581-0240] | 244% | 230% | 5.93 µM | y | 0.010 | 0.64 µM |  | 
O=C(NCCCOc1cccc2cccnc12)c1cc(-c2ccccc2)on1 [Compound F5875-0200] | 31.8% | 51.6% | 25 µM | n | 0.041 | 6.2 µM |  | 
O=C(NCCCn1cccc1)c1cc(-c2ccccc2)on1 [Compound F5937-0207] | 32.8% | 37.3% | 8.38 µM | n | 0.021 | 1.33 µM |  | 
O=C(NCC#CCN1CCCC1)c1cc(-c2ccccc2)on1 [Compound F6244-1415] | 24.8% | 25.2% | 8.61 µM | n | 0.063 | 4.2 µM |  | 
Cc1cc(OCC(=O)Nc2cc(N3CCOCC3)ncn2)cc(C)c1Cl [Compound F6257-1860] | 211% | 234% | 10.7 µM | n | 0.022 | 1.07 µM |  | 
O=C1OCC(c2cccs2)=C1c1cccs1 [YC-002] |  |  |  |  |  |  | 6% | EC50 (mouse P23H opsin mutant; [4]): 33 µM
O=C1OCC(c2ccc(Cl)cc2)=C1c1cccs1 [YC-003] |  |  |  |  |  |  | 5% | EC50 (mouse P23H opsin mutant; [4]): 22 µM
O=C1OCC(c2ccc(Br)s2)=C1c1ccc(Cl)c(Cl)c1 [YC-008] |  |  |  |  |  |  | 11% | EC50 (mouse P23H opsin mutant; [5]): 25 µM
O=C1OCC(c2ccc(Br)s2)=C1c1ccc(F)cc1 [YC-009] |  |  |  |  |  |  | 10% | EC50 (mouse P23H opsin mutant; [5]): 7.2 µM
O=C1OCC(c2ccc(Br)s2)=C1c1ccc(Cl)cc1 [YC-011] |  |  |  |  |  |  | 10% | EC50 (mouse P23H opsin mutant; [5]): 7.5 µM
O=C1OCC(c2ccc(Cl)s2)=C1c1ccccc1[N+](=O)[O-] [YC-013] |  |  |  |  |  |  | 111% | EC50 (mouse P23H opsin mutant; [6]): 11 µM
Cc1sc(C)c(C2C(=O)OC(=O)C2c2c(C)sc(C)c2C)c1C (centres unmarked) [YC-018] |  |  |  |  |  |  | 95% | 
O=C1OCC(c2ccc(F)s2)=C1c1cccs1 [YC-021] |  |  |  |  |  |  | 160% | EC50 (mouse P23H opsin mutant; [4]): 103 µM
O=C1OCC(c2ccc(Cl)s2)=C1c1ccccc1Cl [YC-032] |  |  |  |  |  |  | 288% | EC50 (mouse P23H opsin mutant; [6]): 5.8 µM
COc1ccccc1C1=C(c2ccc(Cl)s2)COC1=O [YC-033] |  |  |  |  |  |  | 38.3% | EC50 (mouse P23H opsin mutant; [6]): 8.5 µM
O=C1OCC(c2ccc(Cl)s2)=C1c1cccc(Cl)c1 [YC-034] |  |  |  |  |  |  | 43.5% | EC50 (mouse P23H opsin mutant; [6]): 4.75 µM
O=C1OCC(c2ccc(Cl)s2)=C1c1ccccn1 [YC-043] |  |  |  |  |  |  | 214% | EC50 (mouse P23H opsin mutant; [6]): 19 µM
O=C1OCC(c2ccc(F)cc2)=C1c1cccs1 [YC-044] |  |  |  |  |  |  | 10% | EC50 (mouse P23H opsin mutant; [4]): 37.6 µM
O=C1OCC(c2ccco2)=C1c1cccs1 [YC-049] |  |  |  |  |  |  |  | Efficacy (%) (mouse P23H opsin mutant; Table 3, normalized to 5 μM 9-cis-retinal): 112%
